These results are taken from publication PMC8141582, “Synergistic Effect of Statins and Abiraterone Acetate on the Growth Inhibition of Neuroblastoma via Targeting Androgen Receptor” (Frontiers in Oncology, 2021).

Each structure is given as a SMILES string.

For one assay, the system named is NB cells. Set-up: method as in PMID 28326012. Conditions: cited from earlier work; for proliferation, migration, invasion, and sphere formation of NB cells: AR antagonists, hormone-free medium.
In a further assay the test system is 22RV1 cells. Set-up: key to Results (abiraterone acetate alone): Positive: Abiraterone acetate alone inhibited the progression of cancer; Negative: Abiraterone acetate could not inhibit the progression of cancer. The note with it: Prostate Cancer, 200.0 mg/kg, oral; ref Supplement [29]; cited from earlier work.
In the next assay the test system is LNCaP cells. Set-up: method as in Supplement [30]; key: Positive: Abiraterone acetate alone inhibited the progression of cancer; Negative: Abiraterone acetate could not inhibit the progression of cancer. The note with it: Prostate Cancer, 3.5 mg/kg/day, i.p.; ref Supplement [30]; cited from earlier work.
For a further assay, the system named is HUVEC cells. The assay is described as follows: MTT cell viability assay, HUVEC. Conditions: Homo sapiens, normal cell line, 72 h. It is filed as cell-based. On the procedure:
(§1) Statins dissolved in DMSO and AA dissolved in ethanol. After 72 h treatment, the medium was added 0.5 mg/ml MTT reagent and incubated at 37°C for 4 h. Subsequently, the supernatant was aspirated, and cells were lysed in 150 µl DMSO, then shaken 10 min at 37°C. The optical density (OD) was measured at 570 and 630 nm using a plate reader.

In a further assay the test system is SH-SY5Y xenografts. The assay is described as follows: SH-SY5Y tumor xenograft study. It is filed as in vivo, BALB/c nude mice. The note with it: AA 150 mg/kg, oral daily. An excerpt:
Four weeks old BALB/c nude mice of both sexes were purchased from Vital River Laboratory Animal Technology Co., Ltd. (Beijing, China) and maintained under specific pathogen-free conditions. Male mice were castrated 5 days before cell inoculation. […] Then, all the mice were divided randomly into four groups: control group (Placebo, n = 7), simvastatin group (Sim, n = 6), abiraterone acetate group (AA, n = 6), and combination group (Com, n = 6) including three male mice in each group. […] AA 150 mg/kg/day; combined simvastatin 10 mg/kg/day with AA 75 mg/kg/day. Tumor was harvested after 10 days of dosing, then fixed half of a tumor in 4% buffered formaldehyde for IHC and the other half was stored −80°C for RT-PCR and Western Blots analysis.

For a further assay, the system named is HL7702 cells. The assay is described as follows: MTT cell viability assay, HL7702. Conditions: Homo sapiens, L02, normal cell line, 72 h. It is filed as cell-based. On the procedure:
as §1

A further assay relates to Caki2 cells. Set-up: method as in Supplement [32]; key: Positive: Abiraterone acetate alone inhibited the progression of cancer; Negative: Abiraterone acetate could not inhibit the progression of cancer. The note with it: Renal Cell Carcinoma, 195.8 mg/kg/day, i.p.; ref Supplement [32]; cited from earlier work.
In the next assay the test system is MDA-MB-453 cells. Set-up: method as in Supplement [31]; key: Positive: Abiraterone acetate alone inhibited the progression of cancer; Negative: Abiraterone acetate could not inhibit the progression of cancer. Conditions: Breast Cancer, 285.7 mg/kg/day, oral; ref Supplement [31]; cited from earlier work.
A further assay relates to 10A cells. The assay can be described thus: MTT cell viability assay, 10A. Type of assay: cell-based. The note with it: Homo sapiens, normal cell line, 72 h. How it is done:
as §1

The next assay has as its system SK-N-BE (2) cells. The assay is described as follows: MTT cell viability assay, SK-N-BE (2). It is filed as cell-based. Conditions: Homo sapiens, SKNBE2, NB cell line, 72 h. On the procedure: (§2) N2a, SH-SY5Y, SK-N-BE (2), 10A, HUVEC, HL7702 cells were plated in 96-well plates at 8,000 cells/well, respectively, in complete media in triplicate wells for each dose and cultured for 18 h. The neuroblastoma cell lines, N2a, SH-SY5Y, and SK-N-BE (2), and non-cancer cell lines, 10A, HUVEC, and HL7702, were treated with simvastatin and fluvastatin in a range of doses from 0 to 20 μM and with AA from 0 to 30 μM; N2a, SH-SY5Y SK-N-BE (2), were treated with rosuvastatin in a range of doses from 0 to 100 μM for 72 h. Statins dissolved in DMSO and AA dissolved in ethanol. After 72 h treatment, the medium was added 0.5 mg/ml MTT reagent and incubated at 37°C for 4 h. Subsequently, the supernatant was aspirated, and cells were lysed in 150 µl DMSO, then shaken 10 min at 37°C. The optical density (OD) was measured at 570 and 630 nm using a plate reader.

The next assay deals with SH-SY5Y cells. The assay is described as follows: MTT cell viability assay, SH-SY5Y. Type of assay: cell-based. Conditions: Homo sapiens, NB cell line, 72 h. How it is done: as §2
The test system of a further assay is PC-3 cells. Set-up: key to Results (abiraterone acetate alone): Positive: Abiraterone acetate alone inhibited the progression of cancer; Negative: Abiraterone acetate could not inhibit the progression of cancer. The note with it: Prostate Cancer, 98.0 mg/kg/day, oral; ref Supplement [28]; cited from earlier work.
In the next assay the test system is N2a cells. The assay is described as follows: MTT cell viability assay, N2a. It is filed as cell-based, mouse. The note with it: for IC50: Mus musculus, N2a, NB cell line, MTT, 72 h. How it is done:
as §2

Turning to `CNC(=O)c1ccc(N2C(=S)N(c3cnc(C#N)c(C(F)(F)F)c3)C(=O)C23CCC3)cc1F` [ARN509], the “proliferation, migration, invasion, and sphere formation of NB cells” value in the assay with NB cells was “significantly decreased”.

As for `CC(=O)O[C@H]1CC[C@@]2(C)C(=CC[C@@H]3[C@@H]2CC[C@]2(C)C(c4cccnc4)=CC[C@@H]32)C1` [Abiraterone acetate], the “Results (abiraterone acetate alone)” value is on record as “Negative” in the assay on 22RV1 cells; “Positive” in the assay on LNCaP cells; “Positive” in the assay with Caki2 cells; “Negative” in the assay with MDA-MB-453 cells; “Positive” in the assay on PC-3 cells. For the same compound, the IC50 in the assay on HUVEC cells turned out to be 22.6 µM; in the assay with HL7702 cells, 5.31 µM; in the assay with 10A cells, 5.2 µM; in the assay on SK-N-BE (2) cells, 9.86 µM; in the assay with SH-SY5Y cells it was 2.72 µM; in the assay with N2a cells, 4.32 µM. In addition, in the assay with SH-SY5Y xenografts, the tumor growth result was “tumor growth delay”. The compound also displayed an inhibition rate in the assay on N2a cells (N2a cells, 2.5 μM AA) of approximately 20%.

In the case of `CC(C)n1c(/C=C/C(O)CC(O)CC(=O)O)c(-c2ccc(F)cc2)c2ccccc21` (stereo not shown) [Fluvastatin], the IC50 with HUVEC cells worked out at 8.96 µM; with HL7702 cells, 29.7 µM; in the assay with 10A cells it was 13.3 µM; in the assay on SK-N-BE (2) cells, 8.41 µM; in the assay on SH-SY5Y cells, 6 µM; in the assay on N2a cells, 5.09 µM.

On to `CNC(=O)c1ccc(N2C(=S)N(c3ccc(C#N)c(C(F)(F)F)c3)C(=O)C2(C)C)cc1F` [MDV3100], for which the “proliferation, migration, invasion, and sphere formation of NB cells” value in the assay on NB cells is on record as “significantly decreased”.

With `C[C@]1(O)CC[C@H]2[C@@H]3CCC4=CC(=O)CCC4=C3C=C[C@@]21C` [R1881], the “growth of NB” value with NB cells (AR agonist, in vitro and in vivo) is “promoted the growth of NB in vitro and in vivo”.

Regarding `CC(C)c1nc(N(C)S(C)(=O)=O)nc(-c2ccc(F)cc2)c1/C=C/[C@@H](O)C[C@@H](O)CC(=O)O` [Rosuvastatin], the IC50 with SK-N-BE (2) cells is 67.6 µM; with SH-SY5Y cells, more than 100 µM; with N2a cells, 68.4 µM.
